Laboratory results from ChEMBL document CHEMBL1201862, “PubChem BioAssay data set” (2004).
The source made the active and inactive calls.

Assays:
[1] = Reduced DLD-1 viability, concentration-response, CellTiter-Glo luminescence (AID 1117352); type: functional
[2] = system: BJ; assay: BJ-TERT-LT-ST fibroblast viability loss – cell-based, RAS-independent, luminescence, dose response (AID 1935); type: functional; conditions: Homo sapiens;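 note: BJ fibroblasts immortalized with TERT plus LT and ST oncogenes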
[3] = luciferase reporter signal suppression in cells – H4 neuroglioma cells, luminescence, dose response (AID 1990); type: functional, cell-based
[4] = target: T1, Sentrin-specific protease 7 (Homo sapiens, UniProt Q9BQF6); type: functional;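 note: Luminescence-based dose-response confirmation of ultra-high-throughput screening hits, measuring inhibition of SENP7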
T1 sequence (Q9BQF6 whole entry): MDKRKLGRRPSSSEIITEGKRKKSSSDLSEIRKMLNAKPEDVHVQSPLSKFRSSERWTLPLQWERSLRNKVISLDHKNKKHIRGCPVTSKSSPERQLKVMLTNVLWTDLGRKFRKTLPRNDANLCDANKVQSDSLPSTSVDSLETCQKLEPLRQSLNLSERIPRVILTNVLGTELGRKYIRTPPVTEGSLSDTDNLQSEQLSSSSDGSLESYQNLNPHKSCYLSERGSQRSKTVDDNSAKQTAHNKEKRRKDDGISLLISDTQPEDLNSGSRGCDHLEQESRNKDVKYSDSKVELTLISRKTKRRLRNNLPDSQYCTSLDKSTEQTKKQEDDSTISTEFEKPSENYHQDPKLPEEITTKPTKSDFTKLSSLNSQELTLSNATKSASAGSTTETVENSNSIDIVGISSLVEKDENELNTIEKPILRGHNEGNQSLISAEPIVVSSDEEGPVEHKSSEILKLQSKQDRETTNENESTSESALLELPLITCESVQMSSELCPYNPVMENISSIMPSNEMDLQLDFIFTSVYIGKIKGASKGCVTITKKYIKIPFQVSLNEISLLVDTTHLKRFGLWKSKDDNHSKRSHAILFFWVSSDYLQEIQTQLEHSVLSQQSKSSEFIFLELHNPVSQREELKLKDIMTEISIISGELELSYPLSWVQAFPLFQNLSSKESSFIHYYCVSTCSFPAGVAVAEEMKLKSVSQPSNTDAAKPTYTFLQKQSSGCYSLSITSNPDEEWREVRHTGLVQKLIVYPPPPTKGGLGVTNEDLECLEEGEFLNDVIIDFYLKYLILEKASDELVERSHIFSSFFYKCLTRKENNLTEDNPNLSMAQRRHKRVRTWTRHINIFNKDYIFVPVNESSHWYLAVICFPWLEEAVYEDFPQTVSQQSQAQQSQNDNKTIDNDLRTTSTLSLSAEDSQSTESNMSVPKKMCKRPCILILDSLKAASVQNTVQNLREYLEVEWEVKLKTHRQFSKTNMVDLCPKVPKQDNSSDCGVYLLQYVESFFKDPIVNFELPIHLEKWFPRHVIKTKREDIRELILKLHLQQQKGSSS

SMILES | IC50 [1] | EC50 [2] | EC50 [3] | IC50 [4]
Cc1cc2nc3ccc(N(C)C)cc3[s+]c2cc1N [TOLONIUM CHLORIDE] | 9.38 µM (inactive) | 9.19 µM (inconclusive) | 8.36 µM (active) | –
CCCOc1cc2c(C#N)c(N3CCCC3)nc(N)c2c(N)n1 | – | – | – | 4.45 µM (active)
